Test results taken from patent US4198415A, “Prolactin inhibiting octahydro pyrazolo[3,4-g]quinolines” (Eli Lilly and Company, priority 1979, dated 1980).
Counter-ions that a name gives are not always drawn.

How the values were obtained:
prolactin = test: inhibition of prolactin secretion in reserpine-treated male rats (serum prolactin); format: in vivo, rat (Sprague-Dawley); details: intraperitoneal, one hour after treatment, reserpine-pretreated rats
Protocol: Adult male rats of the Sprague-Dawley strain weighing about 200 g. were housed in an air-conditioned room with controlled lighting (lights on 6 a.m.-8 p.m.) and fed lab chow and water ad libitum. Each rat received an intraperitoneal injection of 2.0 mg. of reserpine in aqueous suspension 18 hours before administration of the test drug. The purpose of the reserpine was to keep prolactin levels uniformly elevated. The compounds under test were dissolved in 10 percent ethanol, and were injected intraperitoneally at doses of 50 mcg/kg and 0.5 and 5 mg/kg. Each compound was administered at each dose level to a group of 10 rats, and a control group of 10 intact males received an equivalent amount of 10 percent ethanol. One hour after treatment, all rats were killed by decapitation, and 150 μl aliquots of serum were assayed for prolactin.

[1] = tested on: 6-hydroxydopamine-lesioned rats; test: turning behavior in 6-hydroxydopamine-lesioned rats (rat turning test, Parkinsonism); format: in vivo; details: intraperitoneal; for Average Number of Turns/rat: first 15 minutes after end of latency period
Protocol: In this test, nigroneostriatal-lesioned rats are employed, as prepared by the procedure of Ungerstedt and Arbuthnott, Brain Res, 24, 485 (1970). A compound having dopamine agonist activity causes the rats to turn in circles contralateral to the side of the lesion. After a latency period, which varies from compound to compound, the number of turns is counted over a 15-minute period.
The compounds were dissolved in water and the aqueous solution injected into the rat by the intraperitoneal route at dose levels of 1 mg/kg. and 100 mcg/kg.

[2] = intraperitoneal lethality (LD50); format: in vivo
Protocol: In using the compounds of this invention to inhibit prolactin secretion or to treat Parkinson's syndrome or for other pharmacologic action, a compound according to Formula Ia or Ib above in which R is C1 -C3 alkyl or allyl and R^1 is H or CH2 X where X is OCH3, SCH3, SO2 CH3, CN or CONH2, or a salt thereof with a pharmaceutically-acceptable acid, is administered to a subject suffering from Parkinsonism or in need of having his or her prolactin level reduced in an amount effective to treat Parkinsonism or to reduce prolactin. Oral administration is preferred. If parenteral administration is used, the injection is preferably by the subcutaneous route using an appropriate pharmaceutical formulation. […] In particular, with intravenous or intramuscular administration, a water soluble pharmaceutically-acceptable salt is employed. For oral administration, the compound either as the free base or in the form of a salt thereof, can also be mixed with standard pharmaceutical excipients and loaded into empty telescoping gelatin capsules or pressed into tablets. The oral dosage range is from about 0.01 to 10 mg./kg. of mammalian weight and the parenteral dose range from about 0.0025 to 2.5 mg./kg.

In the case of `CCCN1CC(CSC)CC2Cc3n[nH]cc3CC21` (mixture of isomers) [trans-dl-5-n-Propyl-7-methylmercaptomethyl-4,4a,5,6,7,8,8a,9-octahydro-1H and 2H-pyrazolo[3,4-g]quinoline], the “Percent Prolactin Inhibition” value (prolactin; 0.5 mg/kg) is reported as 48% and the “Percent Prolactin Inhibition” value (prolactin; 5 mg/kg) is reported as 73%.
In the case of `C=CCN1CCC[C@H]2Cc3n[nH]cc3C[C@@H]21` (relative stereo) [Trans-dl-5-allyl-4,4a,5,6,7,8,8a,9-octahydro-2-H(and 1H)-pyrazolo[3,4-g]quinoline dihydrochloride], the “% of Rats Exhibiting Turning Behavior” value ([1]; 1 mg./kg.) is reported as 100%, the “Average Number of Turns/rat” value ([1]; 1 mg./kg.) is reported as 165 turns/rat and the “% of Rats Exhibiting Turning Behavior” value ([1]; 100 mcg./kg.) is reported as 0%. The “Average Number of Turns/rat” value ([1]; 100 mcg./kg.) was 0 turns/rat.
With `CN1CCC[C@H]2Cc3n[nH]cc3C[C@@H]21` (relative stereo) [trans-dl-5-methyl-4,4a,5,6,7,8,8a,9-octahydro-1H-(and 2H)-pyrazolo[3,4-g]quinoline dihydrochlorides] the “Percent Prolactin Inhibition” value (prolactin; 0.5 mg/kg) was 42% and the “Percent Prolactin Inhibition” value (prolactin; 5 mg/kg) was 84%.
For `CCCN1CCC[C@H]2Cc3[nH]ncc3C[C@@H]21` (relative stereo) [trans-dl-5-n-propyl-4,4a,5,6,7,8,8a,9-octahydro-1H and 2H-pyrazolo[3,4-g]quinoline dihydrochloride], the LD50 ([2]; in vivo, ip, intraperitoneal) was 100 to 300 mg/kg, the deaths ([2]; intraperitoneal dosages of 300 mg./kg.) was “fatal” and the deaths ([2]; intraperitoneal dosages of 10-100 mg./kg.) was “no deaths”.
For `CCCN1CC(CSC)CC2Cc3n[nH]cc3CC21` (mixture of isomers) [trans-dl-5-n-Propyl-7-methylmercaptomethyl-4,4a,5,6,7,8,8a,9-octahydro-1H and 2H-pyrazolo[3,4-g]quinoline dihydrochloride], the “% of Rats Exhibiting Turning Behavior” value ([1]; 1 mg./kg.) was 100%, the “Average Number of Turns/rat” value ([1]; 1 mg./kg.) was 81 turns/rat and the “% of Rats Exhibiting Turning Behavior” value ([1]; 100 mcg./kg.) was 50%. The “Average Number of Turns/rat” value ([1]; 100 mcg./kg.) was 67 turns/rat.
